According to paper PMC6539495, “Anti-Cancer Activity of Novel Dihydrotestosterone-Derived Ring A-Condensed Pyrazoles on Androgen Non-Responsive Prostate Cancer Cell Lines” (International Journal of Molecular Sciences, 2019):

Experiments:
MCF-7 cells = test: MTT cell viability assay on MCF-7 breast cancer cells; format: cell-based, human; settings: 72 hours
Procedure: (§1) HeLa, MCF-7 and MDA-MB-231 cells were obtained from Sigma-Aldrich and maintained as reported previously. MRC-5, PC-3, DU 145 cells were purchased from American Type Culture Collection (ATCC, Manassas, VA, USA). PC-3 and DU 145 were maintained in RPMI medium (Sigma-Aldrich) whereas MRC-5 cells were maintained in DMEM medium (Sigma-Aldrich). All media were complemented with 10% Fetal bovine serum (FBS, Sigma-Aldrich) 2 mM L-glutamine, 0.01% streptomycin and 0.005% ampicillin (Sigma-Aldrich). Cells were cultured under standard conditions in a 37 °C incubator containing 5% CO2 in 95% humidity.
(§2) Each test compound was dissolved in cell culture grade DMSO (Molar Chemicals, Halásztelek, Hungary) in a final concentration of […]. Antiproliferative action of the synthesized steroids was investigated by MTT assay. An amount of 5000 cells/well were seeded into 96 well plates. Twenty-four hours post seeding, all cell lines were treated with each compound in 10 and 30 μM concentrations for 72 hours. […] After 72 hours, cells were washed with PBS and incubated with culture medium containing 0.5 mg/mL MTT (3-(4, 5-dimethylthiazolyl-2)-2,5-diphenyltetrazolium bromide) reagent (SERVA, GmbH, Heidelberg, Germany) for an hour at 37 °C. Formazan crystals were solubilized in DMSO and extinction was measured at 570 nm using a Synergy HTX plate reader (BioTech-Hungary, Budapest, Hungary). MTT assays were performed at least three times using four independent biological replicates. Data were normalized to solvent controls and the graphical representation of the obtained data as well as the calculation of IC50 values were carried out by GraphPad Prism 7 software (GraphPad Software; San Diego, CA, USA).

DU 145 cells = test: MTT cell viability assay on DU 145 prostate cancer cells; format: cell-based, human; settings: 72 hours
Procedure: as §1, §2

PC-3 cells = test: MTT cell viability assay on PC-3 prostate cancer cells; format: cell-based, human; settings: for Mean values (%) of primary growth inhibitory screen (viability in %), PC-3: 72 hours, MTT; for antiproliferative potency against PC-3 prostate cancer cells compared to MRC-5 non-cancerous fibroblasts: primary screen
Procedure: as §1, §2

MRC-5 cells = test: MTT cell viability assay on non-cancerous MRC-5 fibroblasts; format: cell-based; settings: 72 hours, MTT
Procedure: as §1, §2

MDA-MB-231 cells = test: MTT cell viability assay on MDA-MB-231 breast cancer cells; format: cell-based, human; settings: 72 hours
Procedure: as §1, §2

HeLa cells = test: MTT cell viability assay on HeLa cervical cancer cells; format: cell-based, human; settings: 72 hours
Procedure: as §1, §2

Compound	Mean values (%) of primary growth inhibitory screen (viability in %), MCF-7 (MCF-7 cells; 10 µM) [%]	Mean values (%) of primary growth inhibitory screen (viability in %), MCF-7 (MCF-7 cells; 30 µM) [%]	Mean values (%) of primary growth inhibitory screen (viability in %), DU 145 (DU 145 cells; 10 µM) [%]	Mean values (%) of primary growth inhibitory screen (viability in %), DU 145 (DU 145 cells; 30 µM) [%]	Mean values (%) of primary growth inhibitory screen (viability in %), PC-3 (PC-3 cells; 10 µM) [%]	Mean values (%) of primary growth inhibitory screen (viability in %), PC-3 (PC-3 cells; 30 µM) [%]	antiproliferative potency against PC-3 prostate cancer cells compared to MRC-5 non-cancerous fibroblasts (PC-3 cells; 30 µM)	Mean values (%) of primary growth inhibitory screen (viability in %), MRC-5 (MRC-5 cells; 10 µM) [%]	Mean values (%) of primary growth inhibitory screen (viability in %), MRC-5 (MRC-5 cells; 30 µM) [%]	Mean values (%) of primary growth inhibitory screen (viability in %), MDA-MB-231 (MDA-MB-231 cells; 10 µM) [%]	Mean values (%) of primary growth inhibitory screen (viability in %), MDA-MB-231 (MDA-MB-231 cells; 30 µM) [%]	Mean values (%) of primary growth inhibitory screen (viability in %), HeLa (HeLa cells; 10 µM) [%]	Mean values (%) of primary growth inhibitory screen (viability in %), HeLa (HeLa cells; 30 µM) [%]	antiproliferative potency against PC-3 prostate cancer cells compared to MRC-5 non-cancerous fibroblasts (PC-3 cells; 10 µM)
Cc1ccccc1-n1nc2c(c1C)C[C@@]1(C)[C@@H](CC[C@@H]3[C@@H]1CC[C@]1(C)C(=O)CC[C@@H]31)C2 [5b, 1′-(2″-Tolyl)-5′-methylpyrazolo[3′,4′:3,2]-5α-androst-17-one]	59.3	63.6	82.3	58.4	62.3	43.2	significantly higher	93.2	66.2	83.0	76.9	65.5	66.8	
Cc1ccc(-n2nc3c(c2C)CC2(C)C(CCC4C5CCC(=O)C5(C)CCC42)C3)cc1 (stereo not drawn) [5c, 1′-(4″-Tolyl)-5′-methylpyrazolo[3′,4′:3,2]-5α-androst-17-one]	63.6	48.7	86.3	51.1	68.1	43.6		89.1	62.5	78.7	66.2	46.3	38.5	
Cc1ccc(-n2nc3c(c2C)C[C@@]2(C)[C@@H](CC[C@@H]4[C@@H]2CC[C@]2(C)C(=O)CC[C@@H]42)C3)c(C)c1 [5d, 1′-(2″,4″-Dimethylphenyl)-5′-methylpyrazolo[3′,4′:3,2]-5α-androst-17-one]	56.3	13.3	65.6	10.0	52.1	14.6		80.1	21.3	77.2	54.1	39.5	30.7	
COc1ccc(-n2nc3c(c2C)C[C@@]2(C)[C@@H](CC[C@@H]4[C@@H]2CC[C@]2(C)C(=O)CC[C@@H]42)C3)cc1 [5e, 1′-(4″-Methoxyphenyl)-5′-methylpyrazolo[3′,4′:3,2]-5α-androst-17-one]	53.5	36.3	62.1	48.1	45.5	29.7	significantly higher	79.3	79.3	72.0	61.5	38.4	41.8	
Cc1c2c(nn1-c1ccc(F)cc1)C[C@@H]1CC[C@@H]3[C@H](CC[C@]4(C)C(=O)CC[C@@H]34)[C@@]1(C)C2 [5f, 1′-(4″-Fluorophenyl)-5′-methylpyrazolo[3′,4′:3,2]-5α-androst-17-one]	72.6	30.6	74.9	50.7	54.3	17.6	significantly higher	83.9	66.1	82.3	66.0	40.5	50.5	significantly higher
Cc1c2c(nn1-c1ccc(Cl)cc1)C[C@@H]1CC[C@@H]3[C@H](CC[C@]4(C)C(=O)CC[C@@H]34)[C@@]1(C)C2 [5g, 1′-(4″-Chlorophenyl)-5′-methylpyrazolo[3′,4′:3,2]-5α-androst-17-one]	56.3	28.0	73.7	23.2	54.7	11.8		94.4	18.1	65.7	65.1	38.7	39.0	significantly higher
